Laboratory results: patent publication US20040018150A1, “Prodrugs of phosphonate nucleotide analogues and methods for selecting and making same” (priority 2003, published 2004)
Read-outs that look alike come from different tables or passages of the source.

Experiments:
MT-2 cells [1] = experiment: Cytotoxicity in MT-2 cells; conditions: cell culture
HIV-1 [2] = tested on: HIV-1
MT-2 cells [3] = tested on: MT-2 cells
HIV-1 [4] = conditions: anti-HIV-1; from Mulato and Cherrington, Antiviral Research 36, 91 (1997); cited from earlier work
HIV-1 [5] = experiment: microbe, parasite or virus in culture
[6] = for PMPA AUC in PBMC Mean / PMPA AUC in Plasma Mean: dog, in vivo, po; for PBMC/Plasma Exposure Ratio / Prodrug in Plasma: dogs, oral, 10 mg-equivalent of PMPA/kg
Description: Formulations. The prodrugs were formulated as solutions in 50 mM citric acid within 0.5 hour prior to dose. All compounds used in the studies were synthesized by Gilead Sciences. The following lots were used:
Dose Administration and Sample Collection. The in-life phase of this study was conducted in accordance with the recommendations of the “Guide for the Care and Use of Laboratory Animals” (National Institutes of Health publication 86-23) and was approved by an Institutional Animal Care and Use Committee. Fasted male beagle dogs (10±2 kg) were used for the studies. Each drug was administered as a single dose by oral gavage (1.5-2 ml/kg). The dose was 10 mg-equivalent of PMPA/kg. For PBMCs, blood samples were collected at 0 (pre-dose), 2,8, and 24 h post-dose. […] Blood (1.0 ml) was processed immediately for plasma by centrifugation at 2,000 rpm for 10 min. Plasma samples were frozen and maintained at […] until analyzed.
Peripheral Blood Mononuclear Cell (PBMC) preparation. Whole blood (8 ml) drawn at specified time points was mixed in equal proportion with phosphate buffered saline (PBS), layered onto 15 ml of Ficoll-Paque solution (Pharmacia Biotech,) and centrifuged at 400×g for 40 min. PBMC layer was removed and washed once with PBS. Formed PMBC pellet was reconstituted in 0.5 ml of PBS, cells were resuspended, counted using hemocytometer and maintained at […] until analyzed. The number of cells multiplied by the mean single-cell volume was used in calculation of intracellular concentrations. […] Agents Chemother.
Determination of PMPA and Prodrugs in plasma and PBMCs. […] Derivatized samples were then evaporated to dryness and reconstituted in 100 μl of water for HPLC analysis.
Before intracellular PMPA could be determined by HPLC, the large amounts of adenine related ribonucleotides present in the PBMC extracts had to be removed by selective oxidation.
The HPLC system was comprised of a P4000 solvent delivery system with AS3000 autoinjector and F2000 fluorescence detector (Tlermo Separation, San Jose, Calif.). […] The mobile phases used were: A, 5% acetonitrile in 25 mM potassium phosphate buffer with 5 mM tetrabutyl ammonium bromide (TBABr), pH 6.0; B, 60% acetonitrile in 25 mM potassium phosphate buffer with 5 mM TBABr, pH 6.0. The flow rate was 2 ml/min and the column temperature was maintained at 35° C. by a column oven. The gradient profile was 90% A/10% B for 10 min for PMPA and 65%A/35%B for 10 min for the prodrug. […] Data was acquired and stored by a laboratory data acquisition system (PeakPro, Beckman, Allendale, N.J.).
Pharmacokinetic Calculations. […] The AUC values were calculated using the trapezoidal rule.

[7] = Stability / hydrolysis in MT-2 cell extract; type: in vitro ADME; conditions: 37° C., HEPES buffer pH 7.4
Description: (§1) The in vitro metabolism and stability of separated diastereomers were determined in PLCE, MT-2 extract and human plasma. A biological sample listed below, 80 μL, was transferred into a screw-capped centrifuge tube and incubated at 37° C. for 5 min. A solution containing 0.2 mg/mL of the test compound in a suitable buffer, 20 μL, was added to the biological sample and mixed. The reaction mixture, 20 μL, was immediately sampled and mixed with 60 μL of methanol containing 0.015 mg/mL of 2-hydroxymethylnaphthalene as an internal standard for HPLC analysis. The sample was taken as the time-zero sample. Then, at specific time points, the reaction mixture, 20 μL, was sampled and mixed with 60 μL of methanol containing the internal standard. The mixture thus obtained was centrifuged at 15,000 G for 5 min and the supernatant was analyzed with HPLC under the conditions described below.
(2) MT-2 cell extract was prepared from MT-2 cells according to the published procedure [A. Pompon, I. Lefebvre, J.-L. Imbach, S. Kahn, and D. Farquhar, “Antiviral Chemistry & Chemotherapy”, 5:91-98 (1994)] except for using HEPES buffer described below as the medium.
In the study for MT-2 cell extracts, the test compound was dissolved in HEPES buffer. HEPES buffer contains 0.010 M HEPES, 0.05 M potassium chloride, 0.005 M magnesium chloride, and 0.005 M dl-dithiothreitol. pH 7.4 at 37° C.
(§2) The HPLC analysis was carried out under the following conditions.

[8] = tested on: PLCE (porcine liver carboxyesterase); experiment: in vitro; type: in vitro ADME; conditions: 37° C., PBS pH 7.4
Description: as §1
(1) PLCE (porcine liver carboxyesterase from Sigma, 160 u/mg protein, 21 mg protein/mL) diluted 20 fold with PBS (phosphated-buffered saline).
In the study for PLCE, the test compound was dissolved in PBS. PBS (phosphate-buffered saline, Sigma) contains 0.01 M phosphate, 0.0027 M potassium chloride, and 0.137 M sodium chloride. pH 7.4 at 37° C.
as §2

[9] = Stability in human plasma; type: in vitro ADME; conditions: 37° C., TBS pH 7.5
Description: as §1
(3) Human plasma (pooled normal human plasma from George King Biomedical Systems, Inc.)
In the study for human plasma, the test compound was dissolved in TBS. TBS (tris-buffered saline, Sigma) contains 0.05 M Tris, 0.0027 M potassium chloride, and 0.138 M sodium chloride. pH 7.5 at 37° C.
as §2

[10] = Incubation of radiolabeled PMPA prodrugs or PMPA in human whole blood; metabolites in plasma, PBMCs and RBCs; type: in vitro ADME; conditions: human, 1 h
Description: After 1 hour, plasma, red blood cells (RBCs) and peripheral blood mononuclear cells (PBMCs) were isolated and analyzed by HPLC with radiometric detection.

in vitro = conditions: human
[11] = activity of diastereomer A versus B
[12] = cell culture anti-HIV-1 activity, separated diastereomers and 1:1 mixtures
[13] = Human immunodeficiency virus 1, MT2

## CCOC(=O)[C@H](C)N[P@@](=O)(CO[C@H](C)Cn1cnc2c(N)ncnc21)Oc1ccccc1 (mixture of isomers) [Ala-ethyl, Phenyl PMPA, Ethyl L-Alanyl Amidate]
MT-2 cells [1]
  CC50: 60 µM
HIV-1 [2]; IC50 relative to PMPA
  Fold change: 250×
HIV-1 [2]; [11]
  A/B activity: 10×
HIV-1 [2]; [12]
  IC50: 0.02 µM

## COC(=O)[C@H](C)NP(=O)(CO[C@H](C)Cn1cnc2c(N)ncnc21)Oc1ccccc1 (mixture of isomers) [Ala-methylester]
MT-2 cells [3]
  CC50: 80 µM
HIV-1 [2]; IC50 relative to PMPA
  Fold change: 200×
HIV-1 [2]; [11]
  A/B activity: 20×
HIV-1 [2]; [12]
  IC50: 0.025 µM

## COC(=O)C(C)NP(=O)(COC(C)Cn1cnc2c(N)ncnc21)Oc1ccccc1 (single isomer, unassigned) [GS-6957a]
HIV-1 [2]
  Fold change: 670×
  IC50: 0.0075 µM

## COC(=O)[C@H](C)NP(=O)(CO[C@H](C)Cn1cnc2c(N)ncnc21)Oc1ccccc1 (single isomer, unassigned) [GS-6957b]
HIV-1 [2]
  Fold change: 33×
  IC50: 0.15 µM

## COC(=O)C(Cc1ccccc1)NP(=O)(COC(C)Cn1cnc2c(N)ncnc21)Oc1ccccc1 (single isomer, unassigned) [GS-7003a]
HIV-1 [2]
  Fold change: 500×
  IC50: 0.01 µM

## COC(=O)C(Cc1ccccc1)NP(=O)(COC(C)Cn1cnc2c(N)ncnc21)Oc1ccccc1 (single isomer, unassigned) [GS-7003b]
HIV-1 [2]
  Fold change: 50×
  IC50: 0.1 µM

## CCOC(=O)CNP(=O)(CO[C@H](C)Cn1cnc2c(N)ncnc21)Oc1ccccc1 (single isomer, unassigned) [GS-7335]
HIV-1 [2]
  Fold change: 5×
  IC50: 1 µM

## CCOC(=O)[C@H](CC)NP(=O)(CO[C@H](C)Cn1cnc2c(N)ncnc21)Oc1ccccc1 (stereo partly drawn) [ABA-ethyl]
MT-2 cells [1]
  CC50: > 100 µM
HIV-1 [2]
  A/B activity: 7.5×
  Fold change: 625×
  IC50: 0.008 µM

## Cc1cn([C@H]2C[C@H](N=[N+]=[N-])[C@@H](CO)O2)c(=O)[nH]c1=O [AZT]
HIV-1 [4]
  IC50: 0.17 ± 0.08 µM

## Nc1ncnc2c1ncn2CCOCP(=O)(O)O [Adefovir (PMEA), 9-[2-(phosphonomethoxy)ethyl]adenine]
HIV-1 [4]
  IC50: 13.4 ± 4.2 µM

## CC(C)OC(=O)[C@H](C)NP(=O)(CO[C@H](C)Cn1cnc2c(N)ncnc21)Oc1ccccc1 (stereo partly drawn) [Ala-isopropyl]
HIV-1 [2]; [11]
  A/B activity: 12×
HIV-1 [5]; [13]
  IC50: 0.01 µM

## Nc1ccn([C@@H]2CS[C@H](CO)O2)c(=O)n1 [Compound 3TC]
HIV-1 [4]
  IC50: 1.8 ± 0.25 µM

## CCOC(=O)CNP(=O)(CO[C@H](C)Cn1cnc2c(N)ncnc21)Oc1ccccc1 (stereo partly drawn) [GS-7119]
[6]
  PMPA AUC in PBMC Mean: 530
  PMPA AUC in Plasma Mean: 6.11
  PBMC/Plasma Exposure Ratio: 87
  Prodrug in Plasma: YES
MT-2 cells [1]
  CC50: > 100 µM
HIV-1 [2]
  Fold change: 100×
  IC50: 0.05 µM

## CCOC(=O)C(CC)NP(=O)(COC(C)Cn1cnc2c(N)ncnc21)Oc1ccccc1 (stereo not drawn) [GS-7342]
[7]
  MT-2 extract hydrolysis product: Met. X & PMPA
[6]
  PMPA AUC in PBMC Mean: 1060
  PMPA AUC in Plasma Mean: 4.6
  PBMC/Plasma Exposure Ratio: 230
  Prodrug in Plasma: YES
[8]
  PLCE hydrolysis product: Met. X
HIV-1 [2]
  IC50: 0.004 µM
HIV-1 [2]; IC50 relative to PMPA
  Fold change: 1,250×
HIV-1 [2]; read-out: HIV IC50
  IC50: 0.004 µM
[9]
  Human Plasma Stability (HP) product: Met. Y
  Human Plasma Stability (HP) t1/2: 103

## Cc1c(O)cccc1C(=O)N[C@@H](CSc1ccccc1)[C@H](O)CN1C[C@H]2CCCC[C@H]2C[C@H]1C(=O)NC(C)(C)C [Nelfinavir]
HIV-1 [4]
  IC50: 0.006 ± 0.002 µM

## C[C@H](Cn1cnc2c(N)ncnc21)OCP(=O)(O)O [PMPA, 9-[2-(phosphonomethoxy)propyl]adenine]
HIV-1 [4]
  IC50: 6.3 ± 3.3 µM
[10]
  Metabolites (% of Total Peak Area): PMPApp: 16%
HIV-1 [2]
  Fold change: 1×
HIV-1 [5]; [13]
  IC50: 5 µM
HIV-1 [5]; Human immunodeficiency virus 1, MT2, read-out: HIV-1 Activity IC50
  IC50: 5 µM
In vitro
  CC50: 6000 µM

## COC(=O)[C@H](Cc1ccccc1)NP(=O)(CO[C@H](C)Cn1cnc2c(N)ncnc21)Oc1ccccc1 (stereo partly drawn) [Phe-methylester]
MT-2 cells [1]
  CC50: 60 µM
HIV-1 [2]
  A/B activity: 10×
  Fold change: 170×
  IC50: 0.03 µM

## Cc1cn([C@H]2C=C[C@@H](CO)O2)c(=O)[nH]c1=O [d4T]
HIV-1 [4]
  IC50: 8 ± 2.5 µM
